Reference: ChEMBL document CHEMBL5465560, “Selectivity Literature for EUbOPEN Chemogenomic Library” (2024)
Values belong to the molecule of their own block, whether it stands above or below them.

What was measured:
[1] = biological target: Histone acetyltransferase KAT2B (Homo sapiens, UniProt Q92831); assay: Selectivity interaction (Human bromodomain panel (DSF assay)) EUB0000233b KAT2B
[2] = biological target: T1, Aurora kinase A (Homo sapiens) (UniProt O14965); assay: Selectivity interaction (ActivX KiNativ screen (kinase selectivity in THP-1 cell lysates)) EUB0000639a STK6; format: subcellular; settings: lysate, at 0.2 µM
T1 sequence (whole entry): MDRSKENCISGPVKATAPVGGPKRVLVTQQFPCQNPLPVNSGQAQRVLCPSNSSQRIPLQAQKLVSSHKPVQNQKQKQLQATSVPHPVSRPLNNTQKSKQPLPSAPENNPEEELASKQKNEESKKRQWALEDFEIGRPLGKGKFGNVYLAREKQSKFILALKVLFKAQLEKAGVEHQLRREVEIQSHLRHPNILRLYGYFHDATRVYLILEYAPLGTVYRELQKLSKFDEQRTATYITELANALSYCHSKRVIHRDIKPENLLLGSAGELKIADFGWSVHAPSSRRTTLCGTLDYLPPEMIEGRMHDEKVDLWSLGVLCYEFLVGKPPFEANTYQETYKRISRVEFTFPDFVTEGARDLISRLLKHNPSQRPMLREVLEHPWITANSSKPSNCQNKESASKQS

[3] = biological target: Cyclin-dependent kinase 5 (Homo sapiens, UniProt Q00535); assay: Selectivity interaction (ActivX KiNativ screen (kinase selectivity in THP-1 cell lysates)) EUB0000639a CDK5; format: subcellular; settings: lysate, at 5 µM
[4] = biological target: Focal adhesion kinase 1 (Homo sapiens, UniProt Q05397); assay: Selectivity interaction (ActivX KiNativ screen (kinase selectivity in THP-1 cell lysates)) EUB0000639a PTK2; format: subcellular; settings: lysate, at 0.2 µM
[5] = biological target: Serine/threonine-protein kinase Chk2 (Homo sapiens) (UniProt O96017); assay: Selectivity interaction (ProQinase) EUB0000171b CHEK2
[6] = biological target: N-lysine methyltransferase SMYD2 (Homo sapiens) (UniProt Q9NRG4); assay: Selectivity interaction (Methyltransferase screen (radiometric assays, panel of 8 PRMTs, 21 protein lysine methyltransferases, 3 DNA methyltransferases, and one RNA methyltransferase)) EUB0000271b SMYD2
[7] = biological target: T2, Serine/threonine-protein kinase Nek2 (Homo sapiens) (UniProt P51955); assay: Selectivity interaction (Kinase panel (DSF assay)) EUB0001559a NEK2
T2 sequence (whole entry): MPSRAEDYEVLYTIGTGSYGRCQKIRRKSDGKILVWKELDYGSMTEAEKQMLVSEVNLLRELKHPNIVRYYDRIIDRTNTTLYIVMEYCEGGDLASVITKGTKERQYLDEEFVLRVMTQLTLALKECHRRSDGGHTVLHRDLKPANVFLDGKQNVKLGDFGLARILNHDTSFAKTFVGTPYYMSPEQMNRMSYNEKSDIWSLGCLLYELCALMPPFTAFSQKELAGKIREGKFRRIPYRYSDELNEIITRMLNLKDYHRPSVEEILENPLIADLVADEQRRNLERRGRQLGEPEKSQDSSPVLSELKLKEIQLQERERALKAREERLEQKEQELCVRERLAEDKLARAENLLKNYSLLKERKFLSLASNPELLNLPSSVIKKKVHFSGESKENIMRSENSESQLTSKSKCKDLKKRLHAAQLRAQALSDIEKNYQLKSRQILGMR

[8] = biological target: T3, Serine/threonine-protein kinase D3 (Homo sapiens) (UniProt O94806); assay: Selectivity interaction (KinomeScan (DiscoverX)) EUB0000595a PRKD3; settings: at 10 µM
T3 sequence (whole entry): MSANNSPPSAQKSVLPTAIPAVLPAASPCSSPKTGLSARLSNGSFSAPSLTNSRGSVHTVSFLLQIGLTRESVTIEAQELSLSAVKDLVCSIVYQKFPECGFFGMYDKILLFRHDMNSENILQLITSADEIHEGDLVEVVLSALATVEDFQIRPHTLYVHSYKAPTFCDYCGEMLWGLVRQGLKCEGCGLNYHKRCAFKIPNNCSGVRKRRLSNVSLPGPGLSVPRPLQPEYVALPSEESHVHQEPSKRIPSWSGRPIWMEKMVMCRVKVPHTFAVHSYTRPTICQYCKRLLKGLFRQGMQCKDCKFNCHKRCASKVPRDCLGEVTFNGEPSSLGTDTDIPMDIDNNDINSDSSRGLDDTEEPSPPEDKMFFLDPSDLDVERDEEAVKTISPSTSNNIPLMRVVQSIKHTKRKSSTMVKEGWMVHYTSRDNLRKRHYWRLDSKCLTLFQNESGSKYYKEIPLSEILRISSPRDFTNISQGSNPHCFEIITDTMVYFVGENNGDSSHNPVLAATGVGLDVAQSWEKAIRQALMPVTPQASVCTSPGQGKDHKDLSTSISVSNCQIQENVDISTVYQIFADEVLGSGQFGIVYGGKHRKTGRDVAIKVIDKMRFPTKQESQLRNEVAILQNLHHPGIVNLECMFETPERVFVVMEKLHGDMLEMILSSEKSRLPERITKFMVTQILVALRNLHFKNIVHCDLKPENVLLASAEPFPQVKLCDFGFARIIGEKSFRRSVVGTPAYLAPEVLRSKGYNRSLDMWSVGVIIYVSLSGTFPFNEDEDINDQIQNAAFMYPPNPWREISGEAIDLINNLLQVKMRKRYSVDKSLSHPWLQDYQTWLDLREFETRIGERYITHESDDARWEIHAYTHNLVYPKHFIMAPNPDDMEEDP

[9] = biological target: Mitogen-activated protein kinase 14 (Homo sapiens, UniProt Q16539); assay: Selectivity interaction (KinomeScan (DiscoverX)) EUB0001049a MAPK14; settings: at 1 µM
[10] = biological target: T4, Activin receptor type-1B (Homo sapiens) (UniProt P36896); assay: Selectivity interaction (KinomeScan (DiscoverX)) EUB0000655a ACVR1B; settings: at 10 µM
T4 sequence (whole entry): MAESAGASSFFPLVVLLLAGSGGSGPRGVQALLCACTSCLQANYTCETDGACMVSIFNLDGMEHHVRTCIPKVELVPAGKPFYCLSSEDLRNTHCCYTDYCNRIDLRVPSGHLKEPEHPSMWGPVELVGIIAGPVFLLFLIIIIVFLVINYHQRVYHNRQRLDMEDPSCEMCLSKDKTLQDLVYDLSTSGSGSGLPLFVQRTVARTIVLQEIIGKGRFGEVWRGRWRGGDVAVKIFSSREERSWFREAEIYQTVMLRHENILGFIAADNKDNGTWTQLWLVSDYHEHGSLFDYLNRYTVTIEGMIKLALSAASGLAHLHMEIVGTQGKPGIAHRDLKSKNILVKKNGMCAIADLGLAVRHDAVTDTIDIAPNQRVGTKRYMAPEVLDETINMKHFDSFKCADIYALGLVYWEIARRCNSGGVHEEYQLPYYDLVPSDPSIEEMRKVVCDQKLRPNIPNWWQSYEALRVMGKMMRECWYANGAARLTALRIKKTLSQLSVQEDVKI

[11] = biological target: Serine/threonine-protein kinase SBK1 (Homo sapiens) (UniProt Q52WX2); assay: Selectivity interaction (KinomeScan (DiscoverX)) EUB0001079a SBK1; settings: at 1 µM
Chain of Serine/threonine-protein kinase SBK1 (Homo sapiens) (Q52WX2 whole entry): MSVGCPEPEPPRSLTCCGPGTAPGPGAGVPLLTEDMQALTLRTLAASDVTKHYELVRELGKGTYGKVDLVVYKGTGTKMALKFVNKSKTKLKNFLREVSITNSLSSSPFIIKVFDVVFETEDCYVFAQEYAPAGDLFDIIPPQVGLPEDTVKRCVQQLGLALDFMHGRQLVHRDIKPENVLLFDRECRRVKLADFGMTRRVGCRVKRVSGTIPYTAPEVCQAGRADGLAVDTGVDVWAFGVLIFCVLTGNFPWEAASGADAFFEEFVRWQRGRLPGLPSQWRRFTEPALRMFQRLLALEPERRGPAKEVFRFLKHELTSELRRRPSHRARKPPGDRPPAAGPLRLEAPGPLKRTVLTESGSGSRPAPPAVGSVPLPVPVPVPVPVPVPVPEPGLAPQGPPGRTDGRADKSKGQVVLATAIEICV

Chain of Serine/threonine-protein kinase Chk2 (Homo sapiens) (O96017 whole entry): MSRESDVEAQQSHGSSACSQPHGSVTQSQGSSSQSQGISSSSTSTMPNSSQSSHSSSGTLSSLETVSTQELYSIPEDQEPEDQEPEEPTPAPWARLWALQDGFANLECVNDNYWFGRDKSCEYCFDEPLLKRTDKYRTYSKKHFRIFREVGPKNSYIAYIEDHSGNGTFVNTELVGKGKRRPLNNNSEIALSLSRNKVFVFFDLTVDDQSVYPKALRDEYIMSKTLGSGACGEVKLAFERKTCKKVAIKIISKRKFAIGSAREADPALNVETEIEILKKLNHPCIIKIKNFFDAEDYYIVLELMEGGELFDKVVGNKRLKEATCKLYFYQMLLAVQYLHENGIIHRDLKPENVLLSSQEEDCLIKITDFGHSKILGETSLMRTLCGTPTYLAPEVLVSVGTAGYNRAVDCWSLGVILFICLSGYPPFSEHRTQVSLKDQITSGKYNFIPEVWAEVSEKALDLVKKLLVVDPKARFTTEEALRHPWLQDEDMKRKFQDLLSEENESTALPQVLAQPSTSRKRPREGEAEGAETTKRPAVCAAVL
Chain of N-lysine methyltransferase SMYD2 (Homo sapiens) (Q9NRG4 whole entry): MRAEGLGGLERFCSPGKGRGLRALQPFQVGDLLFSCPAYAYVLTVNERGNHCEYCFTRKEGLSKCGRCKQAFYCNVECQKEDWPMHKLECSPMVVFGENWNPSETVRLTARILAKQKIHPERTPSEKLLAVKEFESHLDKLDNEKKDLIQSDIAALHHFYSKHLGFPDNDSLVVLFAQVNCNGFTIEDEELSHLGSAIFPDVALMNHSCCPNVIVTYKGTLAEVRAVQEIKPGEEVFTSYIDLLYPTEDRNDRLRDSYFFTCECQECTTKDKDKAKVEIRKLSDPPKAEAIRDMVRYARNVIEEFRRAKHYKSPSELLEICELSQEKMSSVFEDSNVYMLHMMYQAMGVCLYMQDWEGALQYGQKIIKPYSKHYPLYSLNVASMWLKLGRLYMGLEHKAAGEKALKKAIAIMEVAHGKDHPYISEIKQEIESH
Chain of Cyclin-dependent kinase 5 (Q00535 whole entry, looked up): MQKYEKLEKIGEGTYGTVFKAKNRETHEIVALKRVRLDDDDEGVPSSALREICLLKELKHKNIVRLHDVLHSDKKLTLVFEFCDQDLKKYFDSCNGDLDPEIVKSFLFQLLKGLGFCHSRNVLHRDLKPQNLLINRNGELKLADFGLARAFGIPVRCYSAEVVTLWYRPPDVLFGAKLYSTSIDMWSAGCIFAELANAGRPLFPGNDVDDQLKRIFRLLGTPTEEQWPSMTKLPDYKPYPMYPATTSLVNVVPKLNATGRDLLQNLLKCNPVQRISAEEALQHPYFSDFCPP
Chain of Mitogen-activated protein kinase 14 (Q16539 whole entry): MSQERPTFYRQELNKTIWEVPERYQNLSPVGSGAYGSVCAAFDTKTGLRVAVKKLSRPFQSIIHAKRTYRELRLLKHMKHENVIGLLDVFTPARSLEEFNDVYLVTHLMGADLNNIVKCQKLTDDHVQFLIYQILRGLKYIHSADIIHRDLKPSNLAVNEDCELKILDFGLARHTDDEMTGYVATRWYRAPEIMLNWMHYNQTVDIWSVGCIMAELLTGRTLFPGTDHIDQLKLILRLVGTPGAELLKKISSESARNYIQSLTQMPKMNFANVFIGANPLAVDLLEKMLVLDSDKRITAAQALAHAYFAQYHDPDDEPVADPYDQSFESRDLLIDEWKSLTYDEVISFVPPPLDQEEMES
Chain of Histone acetyltransferase KAT2B (Q92831 whole entry, looked up): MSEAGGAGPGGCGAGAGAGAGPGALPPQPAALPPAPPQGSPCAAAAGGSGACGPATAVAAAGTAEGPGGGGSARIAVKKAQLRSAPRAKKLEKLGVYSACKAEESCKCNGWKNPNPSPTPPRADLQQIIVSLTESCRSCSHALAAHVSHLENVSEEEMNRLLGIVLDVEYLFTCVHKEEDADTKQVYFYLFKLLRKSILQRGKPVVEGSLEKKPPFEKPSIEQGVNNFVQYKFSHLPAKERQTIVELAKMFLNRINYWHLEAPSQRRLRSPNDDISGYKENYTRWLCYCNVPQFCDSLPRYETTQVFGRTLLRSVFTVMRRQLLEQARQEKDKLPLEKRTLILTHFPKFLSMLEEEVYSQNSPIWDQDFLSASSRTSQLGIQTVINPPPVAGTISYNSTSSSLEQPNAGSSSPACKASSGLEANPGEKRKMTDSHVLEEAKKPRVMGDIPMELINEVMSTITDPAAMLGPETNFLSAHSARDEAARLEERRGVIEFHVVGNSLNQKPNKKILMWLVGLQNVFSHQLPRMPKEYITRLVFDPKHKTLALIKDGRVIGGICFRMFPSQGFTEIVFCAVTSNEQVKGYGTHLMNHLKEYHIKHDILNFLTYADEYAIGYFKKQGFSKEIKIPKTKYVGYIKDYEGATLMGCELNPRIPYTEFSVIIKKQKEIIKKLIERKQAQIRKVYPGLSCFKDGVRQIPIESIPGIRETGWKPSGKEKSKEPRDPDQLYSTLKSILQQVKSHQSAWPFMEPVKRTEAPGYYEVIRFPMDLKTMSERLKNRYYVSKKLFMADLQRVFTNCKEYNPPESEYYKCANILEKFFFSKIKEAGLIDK
Chain of Focal adhesion kinase 1 (Q05397 2-1052 limits assumed): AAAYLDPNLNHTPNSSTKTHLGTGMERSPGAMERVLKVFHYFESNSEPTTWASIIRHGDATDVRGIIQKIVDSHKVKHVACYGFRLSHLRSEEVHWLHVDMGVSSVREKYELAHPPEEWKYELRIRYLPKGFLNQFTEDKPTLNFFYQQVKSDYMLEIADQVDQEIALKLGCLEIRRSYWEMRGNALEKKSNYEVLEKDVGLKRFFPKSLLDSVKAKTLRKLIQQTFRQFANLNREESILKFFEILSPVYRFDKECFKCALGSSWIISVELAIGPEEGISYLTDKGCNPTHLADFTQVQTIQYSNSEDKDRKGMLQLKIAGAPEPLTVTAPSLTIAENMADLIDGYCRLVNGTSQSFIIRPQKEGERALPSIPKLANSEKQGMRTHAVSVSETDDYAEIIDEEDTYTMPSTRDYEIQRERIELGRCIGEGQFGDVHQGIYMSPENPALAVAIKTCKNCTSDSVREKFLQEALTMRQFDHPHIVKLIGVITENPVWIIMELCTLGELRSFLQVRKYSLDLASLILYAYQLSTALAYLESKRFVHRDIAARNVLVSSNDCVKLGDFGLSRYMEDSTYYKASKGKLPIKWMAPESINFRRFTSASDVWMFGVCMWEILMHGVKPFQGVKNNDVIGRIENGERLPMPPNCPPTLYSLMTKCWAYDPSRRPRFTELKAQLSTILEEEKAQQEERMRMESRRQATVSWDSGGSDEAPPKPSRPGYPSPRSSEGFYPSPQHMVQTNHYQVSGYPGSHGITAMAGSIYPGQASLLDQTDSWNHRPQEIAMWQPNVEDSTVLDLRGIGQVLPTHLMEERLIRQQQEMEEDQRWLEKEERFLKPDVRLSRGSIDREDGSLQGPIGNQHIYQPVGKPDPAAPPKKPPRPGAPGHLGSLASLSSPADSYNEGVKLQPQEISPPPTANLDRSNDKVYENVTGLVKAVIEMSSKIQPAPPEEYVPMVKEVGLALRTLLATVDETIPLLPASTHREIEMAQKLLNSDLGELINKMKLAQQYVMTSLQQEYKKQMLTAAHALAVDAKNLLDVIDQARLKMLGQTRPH

dTM [1]: < 2 K
Structure (SMILES): CN(C)CCCOc1ccc(-c2cc(NCCCn3cccn3)nc(S(C)(=O)=O)n2)cc1

% of inhibition [2]: 20.9% | % of inhibition [3]: -23.1% | % of inhibition [4]: 5.5%
Structure (SMILES): CC[C@@H]1[C@H](F)C(=O)N[C@@H]1COc1nccc2cc(C(N)=O)c(OC)cc12 [ZIMLOVISERTIB]

% of control ([5]; at 1 µM): 70% | % of control ([5]; at 5 µM): 36%
Structure (SMILES): C=CC(=O)Nc1cccc(C(=O)Nc2ccc(Nc3cc(-c4[nH]c(SC)nc4C)ccn3)cc2)c1

Structure (SMILES): Cc1cc(C)cc([C@@H]2c3cc(C)ccc3NC(=O)CN2C(=O)c2ccc(Br)s2)c1
% of activity ([6]; at 1 µM): 101% | % of activity ([6]; at 10 µM): 96.7%

dTM [7]: 2.1 K
Structure (SMILES): CN(C(=O)c1cnn2cccnc12)c1cc2c(cc1N1CCOCC1)C(=O)N(C[C@@H](F)C(C)(C)O)C2

Structure (SMILES): COCC(=O)NC/C=C/c1ccc2ncnc(Nc3ccc(Oc4ccc(C)nc4)c(C)c3)c2c1 [CP-724714]
% of control [8]: 83%

Structure (SMILES): COc1cc(Nc2nc(C)cc(-c3cnn4nc(OC)ccc34)n2)cc(C(F)(F)F)c1
% of control [9]: 87%

Structure (SMILES): CN(C)CCOc1ccc(-c2nc(-c3ccncc3)c(-c3ccc4c(c3)CC/C4=N\O)[nH]2)cc1
% of control [10]: 40%

Structure (SMILES): Nc1cnc(N2CCc3cc(S(=O)(=O)Nc4c(F)cc(Cl)cc4F)cc(N4CCCC4=O)c32)nc1 [TP-020n]
% of control [11]: 83%
